In the Deep4Chem optical property database:
Several values for one entry are separate records, joined by “and”; a condition that tells them apart may be missing. Equal values may be shown once.

Assay: solvent given as SMILES

CCCCCCC(CCCCCC)N1C(=O)c2cccc3c(-c4ccc(OC)c5ccccc45)ccc(c23)C1=O
emission maximum (in CCCCCC): 427.1 nm
emission maximum (in CCCCCCCCCCCCCC): 431.7 nm
emission maximum (in CCCCCCCCCCCO): 532.4 nm
emission maximum (in CCCCO): 576.8 nm
emission maximum (in CN(C)C=O): 581.8 nm
emission maximum (in Cc1ccccc1): 478 nm
emission maximum (in ClC(Cl)Cl): 509.7 nm

CCCCN(CCCC)c1ccc(C#Cc2cc(C#Cc3c(F)c(F)c(F)c(F)c3F)c(C#Cc3c(F)c(F)c(F)c(F)c3F)cc2C#Cc2ccc(N(CCCC)CCCC)cc2)cc1
emission maximum (in ClCCl): 556 nm
emission maximum (in c1ccccc1): 505 nm

CC1(C)C2=C(c3ccccc31)S(=O)(=O)c1ccccc12
emission maximum (in ClCCl): 444 nm

COc1c2ccccc2c(OC)c2c(C#CC(C)(C)C)c3cc4sccc4cc3c(C#CC(C)(C)C)c12
emission maximum (in ClCCl): 634 nm

COC(=O)C1=C(C(=O)OC)C2(c3ccccc3-c3ccccc32)[C@@H](c2ccccc2)C=C2c3cc(OC)c(OC)cc3CCN21
emission maximum (in ClCCl): 431 nm

CN(C)c1ccc(/C=C/c2cc[n+](C)c3ccccc23)cc1
emission maximum (in CC#N): 703 nm
emission maximum (in ClCCl): 680 nm
emission maximum (in O): 698 nm

CCn1c2ccc(-c3ccc(-c4cccs4)s3)cc2c2cc(-c3ccc(-c4cccs4)s3)ccc21
emission maximum (in ClCCl): 430 nm

Cc1ccc(C)c2nc3c(=O)[nH]c(=O)[nH]c3nc12
emission maximum (in CC#N): 491 nm

CN(C)c1ccc(-c2nc(C#N)c(C#N)n2C)cc1
emission maximum (in C1CCCCC1): 375 nm
emission maximum (in CC#N): 519 nm
emission maximum (in CO): 427 nm
emission maximum (in ClC(Cl)Cl): 437 nm

COc1ccc(-c2ccc3c(c2)c2cc(-c4ccc(OC)cc4)ccc2n3-c2ccc(C(=O)c3ccc4sc5ccccc5c4c3)nc2)cc1
emission maximum (in Cc1ccccc1): 487.2 nm
emission maximum (in c1cc(-n2c3ccccc3c3ccccc32)cc(-n2c3ccccc3c3ccccc32)c1): 493 nm

N#Cc1nc2c3ccc(-c4ccc(N(c5ccccc5)c5ccccc5)cc4)cc3c3cc(-c4ccc(N(c5ccccc5)c5ccccc5)cc4)ccc3c2nc1C#N
emission maximum (in C1COCCO1): 633.42 nm
emission maximum (in CCCCCC): 503.54 nm
emission maximum (in Cc1ccccc1): 588 nm
emission maximum (in ClC(Cl)Cl): 721.14 nm
emission maximum (in O=P(c1ccccc1)(c1ccccc1)c1cccc(-c2cc(-n3c4ccccc4c4ccccc43)cc(-n3c4ccccc4c4ccccc43)c2)n1): 628 nm

N#Cc1nc(N(Cc2ccc(Cl)cc2)Cc2ccc(Cl)cc2)c(C#N)nc1N(Cc1ccc(Cl)cc1)Cc1ccc(Cl)cc1
emission maximum (in ClC(Cl)Cl): 577 nm

CCCCCCCCCCCCN1C(=O)c2c(c3ccc4cc(-c5ccc(C#N)cc5)c(OC)cc4c3c3c2ccc2cc(-c4ccc(C#N)cc4)c(OC)cc23)C1=O
emission maximum (in ClCCl): 520 nm

NCCCCCCCCCCCCN1C(=O)c2ccc3c4ccc5c6c(ccc(c7ccc(c2c37)C1=O)c64)C(=O)N(c1ccc(O)cc1)C5=O
emission maximum (in CN(C)C=O): 534 nm

c1ccc(CO[Si]23n4c5c6ccccc6c4/N=C4N=C(/N=c6/c7ccccc7c(n62)=c2c6ccccc6c(n23)=N5)c2ccccc2\4)cc1 (stereo not drawn)
emission maximum (in CN(C)C=O): 671 nm

C#CCOc1ccc(C2=[N+]3C(=Nc4c(-c5ccccc5)cc(-c5ccc(O)cc5)n4[B-]3(F)F)C(c3ccccc3)=C2)cc1
emission maximum (in CO): 716 nm
emission maximum (in Cc1ccccc1): 711 nm
emission maximum (in ClC(Cl)Cl): 708 nm

CCCCN(CCCC)c1ccc2c(c1)C#CC#Cc1cc(N(CCCC)CCCC)ccc1C#Cc1cc(c3cc1C#Cc1ccc(C(F)(F)F)cc1C#CC#Cc1cc(C(F)(F)F)ccc1C#C3)C#C2
emission maximum (in ClCCl): 551 nm
emission maximum (in c1ccccc1): 499 nm

COc1cc2c(cc1OC)C1=C[C@H](c3ccccc3)C3(C(C#N)=C(C#N)N1CC2)c1ccccc1-c1ccccc13
emission maximum (in ClCCl): 410 nm

O=C1/C(=C2\Sc3ccc(S(=O)(=O)Cl)cc3C2=O)Sc2ccc(S(=O)(=O)Cl)cc21
emission maximum (in C1COCCO1): 576 nm
emission maximum (in CS(C)=O): 624 nm

COc1cc(/C=C/c2nc3ccccc3s2)c(OC)cc1/C=C/c1nc(C)nc(C)n1
emission maximum (in C1CCOC1): 488 nm
emission maximum (in CC#N): 499 nm
emission maximum (in ClC(Cl)Cl): 494 nm
emission maximum (in ClCCl): 496 nm

CCCCC(CC)COc1ccc2nc(-c3ccc(-c4ccccc4)s3)sc2c1 (stereo not drawn)
emission maximum (in ClCCl): 423 nm

CC(C)c1cc(C(C)C)c(B2c3cc(N4c5ccccc5C(C)(C)c5ccccc54)ccc3N(c3ccccc3)c3ccc(N4c5ccccc5C(C)(C)c5ccccc54)cc32)c(C(C)C)c1
emission maximum (in C1CCOC1): 485.71 nm
emission maximum (in CCOC(C)=O): 481.97 nm
emission maximum (in Cc1ccccc1): 469.39 nm
emission maximum (in ClCCl): 494.56 nm
emission maximum (in c1cc(-c2cccc(-n3c4ccccc4c4ccccc43)c2)cc(-n2c3ccccc3c3ccccc32)c1): 469 nm

COc1ccc(-c2ccc(-c3ccc(OC)cc3)c3nc(-c4ccccc4)c(-c4ccccc4)nc23)cc1
emission maximum (in C1CCOC1): 504 nm
emission maximum (in CC#N): 512 nm
emission maximum (in CCCCCC): 477 nm
emission maximum (in CN(C)C=O): 514 nm
emission maximum (in Cc1ccccc1): 492 nm
emission maximum (in ClC(Cl)Cl): 502 nm

CN(C)c1ccc2c(c1)COc1c-2oc2ccccc2c1=O
emission maximum (in C1CCCCC1): 411.43 nm
emission maximum (in CC#N): 489 nm and 491.43 nm
emission maximum (in CCOC(C)=O): 464 nm and 461.07 nm
emission maximum (in Cc1ccccc1): 441 nm

CCC(C)(C)c1ccc2c(c1)C(CCOC)(CCOC)c1cc(-c3ccc4c(c3)C(CCOC)(CCOC)c3cc(C(C)(C)CC)ccc3-4)ccc1-2
emission maximum (in C1CCCCC1): 371 nm

c1ccc(-c2cc3cccc4cc(-c5ccccc5)c5cc(-c6cc7[b-]8c(c6)c(-c6ccccc6)cc6cccc(cc7-c7ccccc7)[n+]86)cc2[b-]5[n+]34)cc1
emission maximum (in C1CCCCC1): 521 nm

C(=C\c1ccc(-n2c3ccccc3c3ccccc32)cc1)/c1ccc(-c2ccc(/C=C/c3ccc(-n4c5ccccc5c5ccccc54)cc3)cc2)cc1
emission maximum (in Cc1ccccc1): 420 nm
emission maximum (in c1ccc2c(c1)c1ccccc1n2-c1ccc(-c2ccc(-n3c4ccccc4c4ccccc43)cc2)cc1): 438 nm

CCCCCOc1cc2oc(=O)c3c4ccc(N(c5ccc(C)cc5)c5ccc(C)cc5)cc4c4ccc5cccc6c(c1)c2c3c4c56
emission maximum (in C1CCOC1): 605 nm

c1ccc(N(c2ccccc2)c2ccc(-c3ccc4c(c3)C3(c5cc(-c6ccc(N(c7ccccc7)c7ccccc7)cc6)ccc5S4)c4ccccc4-c4ccccc43)cc2)cc1
emission maximum (in CC(C)=O): 414.99 nm
emission maximum (in CCCCCC): 392.96 nm
emission maximum (in CN(C)C=O): 421.13 nm
emission maximum (in Cc1ccccc1): 398.74 nm
emission maximum (in ClCCl): 410 nm

CCCCCCn1c2ccccc2c2cc(-c3ccc(-c4cc(-c5ccccn5)nc(-c5ccccn5)c4)cc3)ccc21
emission maximum (in ClCCl): 447 nm

CCCn1c(=O)c(/C=C/c2nc3ccc(C)cc3n(CCC)c2=O)nc2ccc(C)cc21
emission maximum (in C1COCCO1): 484 nm
emission maximum (in CC#N): 502 nm
emission maximum (in ClCCl): 490 nm

O=Cc1ccc(-c2ccc(O)c(-c3nc4ccccc4s3)c2)o1
emission maximum (in CCO): 550 nm
emission maximum (in ClCCl): 553 nm
emission maximum (in O): 564 nm

CC(C)(C)Nc1oc(C=Cc2ccccc2)c(C(=O)OC(C)(C)C)c1C(=O)OC(C)(C)C
emission maximum (in CC#N): 460 nm

O=c1c2ccccc2c2c(C#C[Si](c3ccccc3)(c3ccccc3)c3ccccc3)c3c(=O)c4ccccc4c3c(C#C[Si](c3ccccc3)(c3ccccc3)c3ccccc3)c12
emission maximum (in ClC(Cl)Cl): 570 nm

O=c1c2cccc3cccc(c32)c2nc3cccc4cccc(c43)n12
emission maximum (in ClCCl): 682 nm

Nc1ccc2cc(-c3ccc(C(F)(F)F)cc3)oc(=O)c2c1
emission maximum (in CC(C)=O): 439 nm
emission maximum (in CCCCCC): 418 nm
emission maximum (in CCCCO): 460 nm
emission maximum (in CCCO): 459 nm
emission maximum (in CCO): 460 nm
emission maximum (in CCOC(C)=O): 436 nm
emission maximum (in CN(C)C=O): 448 nm
emission maximum (in CO): 461 nm
emission maximum (in ClC(Cl)Cl): 438 nm

Nc1cc2nc3cc(Cl)c(Cl)cc3nc2cc1N
emission maximum (in CCO): 549 nm

F[B-]1(F)N2C=CN=CC2=[N+]2[N+]1=Cc1c(-c3ccccc3)cc(-c3cccs3)n1[B-]2(F)F
emission maximum (in ClCCl): 566 nm

N#CC(C#N)=C(/C=C/c1cn(-c2ccccc2)nc1-c1ccccc1)c1ccccc1
emission maximum (in C1CCOC1): 459 nm
emission maximum (in C1COCCO1): 461 nm
emission maximum (in CCO): 497 nm
emission maximum (in CCOC(C)=O): 487 nm
emission maximum (in CN(C)C=O): 504 nm
emission maximum (in CO): 496 nm
emission maximum (in CS(C)=O): 509 nm
emission maximum (in Cc1ccccc1): 460 nm
emission maximum (in ClC(Cl)Cl): 488 nm
emission maximum (in ClCCl): 489 nm

FC(F)(F)c1ccc(C2=Cc3ccccc3[Si]2(c2ccccc2)c2ccccc2)cc1
emission maximum (in ClCCl): 401 nm

CC1(C)c2ccccc2N(c2ccc(-c3ccc(C#N)nc3)cc2)c2ccccc21
emission maximum (in Cc1ccccc1): 488 nm
emission maximum (in N#Cc1ccc2c(c1)c1ccccc1n2-c1cccc(-n2c3ccccc3c3ccccc32)c1): 490 nm

CCCCCCCc1ccc(C2=[N+]3C(=C4c5cc(OCC(CC)CC)c(-c6ccc(CCCCCCC)o6)n5[B-](F)(F)[n+]5nnn(c54)[B-]3(F)F)C=C2OCC(CC)CC)o1
emission maximum (in C1CCOC1): 829 nm
emission maximum (in ClCCl): 835 nm

Fc1ccc(-c2ccc(-c3cc(-c4ccccn4)nc(-c4ccccn4)c3)cc2)c(F)c1
emission maximum (in ClCCl): 358 nm

O=[N+]([O-])c1ccc(-c2cn3ccc[n+]3[n-]2)cc1
emission maximum (in ClCCl): 556 nm

c1ccc(/C(=C(\c2ccccc2)c2cc(-c3ccccc3)ccc2-c2ccccc2)c2cc(-c3ccccc3)ccc2-c2ccccc2)cc1
emission maximum (in C1CCOC1): 489 nm

Cc1c2cc3c(-c4ccccc4)c4c(c(-c5ccccc5)c3cc2c2n1[B-](F)(F)[n+]1c(C)c3cc5c(-c6ccccc6)c6c7cccc8cccc(c6c(-c6ccccc6)c5cc3c1=C2c1ccccc1)c87)-c1cccc2cccc-4c12
emission maximum (in ClCCl): 783 nm

CCn1c2ccccc2c2cc(C#Cc3cc(C#Cc4ccc5c(c4)c4ccccc4n5CC)nc(S(C)(=O)=O)n3)ccc21
emission maximum (in C1CCOC1): 496 nm
emission maximum (in CCOC(C)=O): 491 nm
emission maximum (in CN(C)C=O): 550 nm
emission maximum (in Cc1ccccc1): 447 nm
emission maximum (in ClCCl): 510 nm

COc1ccc(CCNC(=O)c2sc(-c3ccc(-c4cc(-c5ccc(C(C)(C)C)cc5)c(C(=O)NCCc5ccc(OC)c(OC)c5)s4)s3)cc2-c2ccc(C(C)(C)C)cc2)cc1OC
emission maximum (in ClCCl): 449 nm

COc1ccc(C(=Cc2ccc(/C=C(\C#N)c3ccccc3)cc2)c2ccc(OC)cc2)cc1
emission maximum (in C1CCOC1): 510 nm

CC1(C)c2ccccc2N(c2ccc(C(=CC#N)c3ccc(N4c5ccccc5C(C)(C)c5ccccc54)cc3)cc2)c2ccccc21
emission maximum (in Cc1ccccc1): 519 nm
